For eight molecules, IC50 and GI50 results are on record in the Kinase Knowledgebase extract (Sharma et al. 2016).

The target of test [1] is EGFR (human) (UniProt P00533).
In test [2] the target is EGFR (human) (UniProt P00533). The note with it: a431.
In test [3] the target is EGFR (human) (UniProt P00533). The note with it: snu638.
Test [4] deals with EGFR (human) (UniProt P00533). The note with it: a549.

EGFR (human), sequence (P00533 whole entry, looked up): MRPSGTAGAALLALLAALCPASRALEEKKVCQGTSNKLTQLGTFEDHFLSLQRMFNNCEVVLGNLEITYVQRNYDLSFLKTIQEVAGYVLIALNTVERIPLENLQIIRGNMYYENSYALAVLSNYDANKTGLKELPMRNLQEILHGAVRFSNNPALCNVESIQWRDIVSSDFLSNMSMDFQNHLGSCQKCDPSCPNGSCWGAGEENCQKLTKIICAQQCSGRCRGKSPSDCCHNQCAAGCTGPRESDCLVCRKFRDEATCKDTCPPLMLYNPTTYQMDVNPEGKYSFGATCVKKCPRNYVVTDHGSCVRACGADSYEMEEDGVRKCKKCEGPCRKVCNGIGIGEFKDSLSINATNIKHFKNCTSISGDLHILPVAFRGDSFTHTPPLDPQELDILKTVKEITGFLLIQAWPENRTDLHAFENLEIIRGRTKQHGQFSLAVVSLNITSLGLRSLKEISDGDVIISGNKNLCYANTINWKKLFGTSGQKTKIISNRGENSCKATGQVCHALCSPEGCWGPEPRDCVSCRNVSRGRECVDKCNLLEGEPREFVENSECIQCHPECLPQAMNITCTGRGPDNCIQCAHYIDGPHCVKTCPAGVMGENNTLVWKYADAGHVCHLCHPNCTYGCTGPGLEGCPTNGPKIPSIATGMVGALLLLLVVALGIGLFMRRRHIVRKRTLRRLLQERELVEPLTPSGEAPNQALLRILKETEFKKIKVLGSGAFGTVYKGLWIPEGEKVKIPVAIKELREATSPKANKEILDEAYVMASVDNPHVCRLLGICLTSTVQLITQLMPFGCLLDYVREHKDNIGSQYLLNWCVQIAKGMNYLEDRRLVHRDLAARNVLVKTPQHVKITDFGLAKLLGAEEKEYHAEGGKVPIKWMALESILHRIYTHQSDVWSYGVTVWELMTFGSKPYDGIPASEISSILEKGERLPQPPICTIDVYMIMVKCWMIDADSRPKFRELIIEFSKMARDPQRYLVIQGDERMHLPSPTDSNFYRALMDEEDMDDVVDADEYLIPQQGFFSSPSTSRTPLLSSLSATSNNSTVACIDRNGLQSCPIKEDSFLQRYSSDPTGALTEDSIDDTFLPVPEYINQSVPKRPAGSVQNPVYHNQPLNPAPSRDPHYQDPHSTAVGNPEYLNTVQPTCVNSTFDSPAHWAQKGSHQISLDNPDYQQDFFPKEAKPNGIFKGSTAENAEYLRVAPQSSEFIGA

Broadly, the IC50 is the concentration needed to halve the response being measured. A lower IC50 goes with inhibition by little substance. In general, GI50 refers to the concentration at which growth is held to half of that of the control. Higher therefore signals less potent growth inhibition. As to `Brc1cccc(Nc2ncnc3cc4c(cc23)OCCO4)c1`, on EGFR (human) [1], the IC50 worked out at 0.0178 µM. The GI50 in the test with EGFR (human) [2] was 0.2 µM; in the test with EGFR (human) [3], 5.75 µM; with EGFR (human) [4], 4.37 µM.
`Fc1ccc(Nc2ncnc3cc4c(cc23)OCCO4)cc1` returned an IC50 against EGFR (human) [1] of 0.0776 µM. Also, the figures for the GI50 in the test with EGFR (human) [2], with EGFR (human) [3] and in the test with EGFR (human) [4] were 1.29 µM, 49 µM and 40.7 µM, respectively.
The matching figures for `Clc1cccc(Nc2ncnc3cc4c(cc23)OCCO4)c1`: 0.0083 µM, 0.19 µM, 4.68 µM and 4.27 µM.
In the case of `Fc1cc(Nc2ncnc3cc4c(cc23)OCCO4)ccc1Cl`, the GI50 was 0.49 µM in the test with EGFR (human) [2], over 100 µM with EGFR (human) [3] and 75.9 µM in the test with EGFR (human) [4].
At EGFR (human) [1], `Ic1cccc(Nc2ncnc3cc4c(cc23)OCCO4)c1` returned an IC50 of 0.063 µM. Moreover, the GI50 with EGFR (human) [2] turned out to be 1.55 µM; with EGFR (human) [3], 6.17 µM; with EGFR (human) [4] it was 5.62 µM.
In the case of `c1ccc(Nc2ncnc3cc4c(cc23)OCCO4)cc1`, the GI50 with EGFR (human) [2] is 3.8 µM; with EGFR (human) [3], 55 µM; with EGFR (human) [4] it was 45.7 µM.
For the molecule `Cc1cc(C)cc(Nc2ncnc3cc4c(cc23)OCCO4)c1`, the GI50 is 0.12 µM in the test with EGFR (human) [2], 0.17 µM with EGFR (human) [3] and 0.23 µM with EGFR (human) [4].
Consider `FC(F)(F)c1cccc(Nc2ncnc3cc4c(cc23)OCCO4)c1`, for which the GI50 with EGFR (human) [2] amounted to 0.14 µM; with EGFR (human) [3], 2.75 µM; in the test with EGFR (human) [4] it was 2.24 µM.
